In ChEMBL document CHEMBL5104164, “Design, synthesis, and biological evaluation of pyrrolopyrimidine derivatives as novel Bruton's tyrosine kinase (BTK) inhibitors” (Eur J Med Chem, 2022):
Calls of active or inactive are those of the source. The calls are words filed in the database; no cut-off is given here.

Legend:
[1] = Clearance in male BALB/c mouse at 2 mg/kg, iv; format: ADME, organism-based; conditions: in vivo
Raji = assay: Antiproliferative activity against human Raji cells incubated for 72 hrs by CellTiter-Glo assay; format: functional, cell-based
[2] = molecular target: T1, Tyrosine-protein kinase BTK (Homo sapiens, UniProt Q06187); assay: Inhibition of BTK in human TMD8 cells assessed as inhibition of BTK autophosphorylation at Tyr223 measured by Western blot analysis; format: cell-based
[3] = Cmax in male BALB/c mouse at 2 mg/kg, iv; format: ADME, organism-based; design: dose 2 mg/kg, route iv; conditions: in vivo
[4] = Mutagenicity in Salmonella typhimurium TA100 at 1.5 to 1000 ug per plate in presence of liver microsomes by AMES test; format: toxicity, Salmonella enterica subsp. enterica serovar Typhimurium; conditions: dose 1.5-1000 µg
[5] = AUC (0 to infinity) in male BALB/c mouse at 10 mg/kg, po; format: ADME, organism-based; design: time infinity, dose 10 mg/kg, route po; conditions: in vivo
OCI-Ly3 = assay: Antiproliferative activity against human OCILY3 cells incubated for 72 hrs by CellTiter-Glo assay; format: functional, cell-based; conditions: OCI-Ly3, 72 h
[6] = Toxicity in female CB-17 SCID nude mouse xenografted with human TMD8 cells assessed as reduction in white blood cells at 50 mg/kg, po administered twice daily for 21 days; format: organism-based; conditions: in vivo, 504 h, time 21 day
TMD8 [7] = assay: Cell cycle arrest in human TMD8 cells assessed as accumulation of cells at G0/G1 phase at 100 nM after 48 hrs by propidium iodide staining based flow cytometric analysis (reference value: 32.9%); format: functional
[8] = Toxicity in female CB-17 SCID nude mouse xenografted with human TMD8 cells assessed as effect on body weight at 12.5 to 50 mg/kg, po administered twice daily for 21 days; format: organism-based; conditions: in vivo, 504 h, dose 12.5-50 mg/kg, time 21 day
[9] = Mutagenicity in Salmonella typhimurium TA1535 at 1.5 to 1000 ug per plate in presence of liver microsomes by AMES test; format: toxicity, Salmonella enterica subsp. enterica serovar Typhimurium; conditions: dose 1.5-1000 µg
[10] = Apparent volume of distribution in male BALB/c mouse at 2 mg/kg, iv; format: ADME, organism-based; conditions: in vivo, read-out: Vz
[11] = Mutagenicity in Salmonella typhimurium TA100 at 1.5 to 1000 ug per plate by AMES test; format: toxicity, Salmonella enterica subsp. enterica serovar Typhimurium; conditions: dose 1.5-1000 µg
TMD8 [12] = assay: Antitumor activity against human TMD8 cells xenografted in female CB-17 SCID nude mouse assessed as tumor suppression at 12.5 to 25 mg/kg, po administered twice daily for 21 days; format: functional, organism-based; conditions: dose 12.5-25 mg/kg, time 21.0 day
[13] = Mutagenicity in Salmonella typhimurium TA1537 at 1.5 to 1000 ug per plate in presence of liver microsomes by AMES test; format: toxicity, Salmonella enterica subsp. enterica serovar Typhimurium; conditions: dose 1.5-1000 µg
SUD4 = assay: Antiproliferative activity against human SU-DHL-4 cells incubated for 72 hrs by CellTiter-Glo assay; format: functional, cell-based; conditions: SU-DHL-4, 72 h
[14] = Mutagenicity in Salmonella typhimurium TA1535 at 1.5 to 1000 ug per plate by AMES test; format: toxicity, Salmonella enterica subsp. enterica serovar Typhimurium; conditions: dose 1.5-1000 µg
TMD8 [15] = assay: Antiproliferative activity against human TMD8 cells incubated for 72 hrs by CellTiter-Glo assay; conditions: TMD8, 72 h
[16] = molecular target: T1, Tyrosine-protein kinase BTK; assay: Inhibition of BTK (unknown origin) measured by ADP-Glo assay
[17] = Half-life in male BALB/c mouse at 2 mg/kg, iv; format: ADME, organism-based; conditions: in vivo
TMD8 [18] = assay: In vivo inhibition of BTK in female CB-17 SCID nude mouse xenografted with human TMD8 cells assessed as reduction in p-BTK (Tyr223) expression at 12.5 to 50 mg/kg, po administered twice daily for 21 days; format: functional, organism-based; conditions: dose 12.5-50 mg/kg, time 21.0 day
TMD8 [19] = assay: Cell cycle arrest in human TMD8 cells assessed as accumulation of cells at G0/G1 phase at 10 nM after 48 hrs by propidium iodide staining based flow cytometric analysis (reference value: 32.9%); format: functional
TMD8 [20] = assay: Induction of apoptosis in human TMD8 cells assessed as apoptotic cells 1000 nM incubated for 72 hrs by AnnexinV-FITC/propidium iodide staining based flow cytometric analysis; format: functional
[21] = Half-life in male BALB/c mouse at 10 mg/kg, po; format: ADME, organism-based; conditions: in vivo
SU-DHL-6 = assay: Antiproliferative activity against human SU-DHL-6 cells incubated for 72 hrs by CellTiter-Glo assay; format: functional, cell-based; conditions: SU-DHL-6, 72 h
[22] = Toxicity in female CB-17 SCID nude mouse xenografted with human TMD8 cells assessed as reduction in monocytes at 50 mg/kg, po administered twice daily for 21 days; format: organism-based; conditions: in vivo, 504 h, time 21 day
TMD8 [23] = assay: Cell cycle arrest in human TMD8 cells assessed as accumulation of cells at G2 phase at 100 nM after 48 hrs by propidium iodide staining based flow cytometric analysis (reference value: 13.4%); format: functional
TMD8 [24] = assay: Antitumor activity against human TMD8 cells xenografted in female CB-17 SCID nude mouse assessed as tumor growth inhibition at 50 mg/kg, po administered twice daily for 21 days; format: functional; conditions: TMD8, 504 h, time 21 day, read-out: TGI
[25] = AUC (0 to infinity) in male BALB/c mouse at 2 mg/kg, iv; format: ADME, organism-based; design: time infinity, dose 2 mg/kg, route iv; conditions: in vivo
[26] = molecular target: Receptor tyrosine-protein kinase erbB-4 (Homo sapiens) (UniProt Q15303); assay: Inhibition of ERBB4 (unknown origin) assessed as residual percent of control at 1 uM measured by DiscoverX kinome scan assay relative to control
TMD8 [27] = assay: Cell cycle arrest in human TMD8 cells assessed as accumulation of cells at S phase at 1 nM after 48 hrs by propidium iodide staining based flow cytometric analysis (reference value: 49.3%); format: functional
[28] = Cmax in male BALB/c mouse at 10 mg/kg, po; format: ADME, organism-based; design: dose 10 mg/kg, route po; conditions: in vivo
DOHH-2 = assay: Antiproliferative activity against human DOHH-2 cells incubated for 72 hrs by CellTiter-Glo assay; format: functional, cell-based; conditions: DOHH-2, 72 h
[29] = Mutagenicity in Salmonella typhimurium TA1537 at 1.5 to 1000 ug per plate by AMES test; format: toxicity, Salmonella enterica subsp. enterica serovar Typhimurium; conditions: dose 1.5-1000 µg
[30] = Mutagenicity in Salmonella typhimurium TA98 at 1.5 to 1000 ug per plate by AMES test; format: toxicity, Salmonella enterica subsp. enterica serovar Typhimurium; conditions: dose 1.5-1000 µg
Pfeiffer = assay: Antiproliferative activity against human Pfeiffer cells incubated for 72 hrs by CellTiter-Glo assay; format: functional, cell-based
[31] = molecular target: T1, Tyrosine-protein kinase BTK; assay: Inhibition of BTK (unknown origin) assessed as residual percent of control at 1 uM measured by DiscoverX kinome scan assay relative to control
TMD8 [32] = assay: Cell cycle arrest in human TMD8 cells assessed as accumulation of cells at G0/G1 phase at 1 nM after 48 hrs by propidium iodide staining based flow cytometric analysis (reference value: 32.9%); format: functional
[33] = Toxicity in female CB-17 SCID nude mouse xenografted with human TMD8 cells assessed as effect on red blood cells at 50 mg/kg, po administered twice daily for 21 days; format: organism-based; conditions: in vivo, 504 h, time 21 day
TMD8 [34] = assay: Cell cycle arrest in human TMD8 cells assessed as accumulation of cells at S phase at 10 nM after 48 hrs by propidium iodide staining based flow cytometric analysis (reference value: 49.3%); format: functional
[35] = molecular target: Voltage-gated inwardly rectifying potassium channel KCNH2 (Homo sapiens, UniProt Q12809); assay: Inhibition of hERG; format: toxicity
Chain of Voltage-gated inwardly rectifying potassium channel KCNH2 (Q12809 whole entry): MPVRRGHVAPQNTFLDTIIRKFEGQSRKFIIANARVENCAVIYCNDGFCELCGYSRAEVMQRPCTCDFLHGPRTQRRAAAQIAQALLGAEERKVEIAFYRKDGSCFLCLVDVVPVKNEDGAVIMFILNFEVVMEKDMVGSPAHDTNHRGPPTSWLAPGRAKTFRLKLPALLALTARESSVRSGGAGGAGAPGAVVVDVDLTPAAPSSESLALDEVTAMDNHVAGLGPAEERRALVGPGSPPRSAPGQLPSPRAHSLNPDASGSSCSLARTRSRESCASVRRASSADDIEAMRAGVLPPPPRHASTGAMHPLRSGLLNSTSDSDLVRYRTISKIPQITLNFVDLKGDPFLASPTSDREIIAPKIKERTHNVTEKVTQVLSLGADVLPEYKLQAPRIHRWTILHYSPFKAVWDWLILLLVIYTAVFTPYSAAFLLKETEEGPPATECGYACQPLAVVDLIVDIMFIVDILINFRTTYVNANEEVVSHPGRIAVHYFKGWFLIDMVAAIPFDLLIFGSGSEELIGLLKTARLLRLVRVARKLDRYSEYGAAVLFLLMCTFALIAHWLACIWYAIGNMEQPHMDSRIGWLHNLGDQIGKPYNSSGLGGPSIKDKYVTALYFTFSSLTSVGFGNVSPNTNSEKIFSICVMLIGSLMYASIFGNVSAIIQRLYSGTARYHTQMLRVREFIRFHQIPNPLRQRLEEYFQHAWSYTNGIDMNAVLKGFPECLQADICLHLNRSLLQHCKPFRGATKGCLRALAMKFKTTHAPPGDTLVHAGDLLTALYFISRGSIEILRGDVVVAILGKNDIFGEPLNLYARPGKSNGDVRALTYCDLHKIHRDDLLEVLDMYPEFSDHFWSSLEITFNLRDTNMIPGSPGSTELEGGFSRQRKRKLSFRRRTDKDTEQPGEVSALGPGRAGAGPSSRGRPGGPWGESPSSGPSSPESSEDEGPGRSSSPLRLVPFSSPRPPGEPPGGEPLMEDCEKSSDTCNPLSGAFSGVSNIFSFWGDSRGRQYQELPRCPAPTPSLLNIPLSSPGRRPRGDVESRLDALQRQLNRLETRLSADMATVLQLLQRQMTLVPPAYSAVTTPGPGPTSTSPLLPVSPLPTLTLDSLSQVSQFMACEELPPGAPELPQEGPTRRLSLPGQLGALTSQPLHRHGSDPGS

T1 sequence (Q06187 whole entry): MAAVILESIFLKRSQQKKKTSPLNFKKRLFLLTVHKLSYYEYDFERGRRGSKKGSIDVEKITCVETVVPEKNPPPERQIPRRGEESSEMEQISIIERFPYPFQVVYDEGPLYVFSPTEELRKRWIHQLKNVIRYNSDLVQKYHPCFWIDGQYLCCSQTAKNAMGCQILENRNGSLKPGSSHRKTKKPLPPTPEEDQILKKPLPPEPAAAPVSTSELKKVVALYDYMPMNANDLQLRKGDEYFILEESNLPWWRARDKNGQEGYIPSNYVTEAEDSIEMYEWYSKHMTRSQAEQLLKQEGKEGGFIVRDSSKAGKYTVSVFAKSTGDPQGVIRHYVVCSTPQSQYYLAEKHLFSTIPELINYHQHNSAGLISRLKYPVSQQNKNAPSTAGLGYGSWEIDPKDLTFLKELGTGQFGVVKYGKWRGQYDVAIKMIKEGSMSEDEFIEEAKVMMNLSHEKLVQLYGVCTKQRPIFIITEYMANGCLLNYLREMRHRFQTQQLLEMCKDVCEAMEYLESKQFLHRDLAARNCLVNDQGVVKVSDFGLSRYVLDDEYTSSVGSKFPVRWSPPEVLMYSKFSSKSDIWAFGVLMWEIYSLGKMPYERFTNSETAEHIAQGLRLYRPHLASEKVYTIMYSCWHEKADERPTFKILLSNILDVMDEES
Chain of Receptor tyrosine-protein kinase erbB-4 (Homo sapiens) (Q15303 whole entry): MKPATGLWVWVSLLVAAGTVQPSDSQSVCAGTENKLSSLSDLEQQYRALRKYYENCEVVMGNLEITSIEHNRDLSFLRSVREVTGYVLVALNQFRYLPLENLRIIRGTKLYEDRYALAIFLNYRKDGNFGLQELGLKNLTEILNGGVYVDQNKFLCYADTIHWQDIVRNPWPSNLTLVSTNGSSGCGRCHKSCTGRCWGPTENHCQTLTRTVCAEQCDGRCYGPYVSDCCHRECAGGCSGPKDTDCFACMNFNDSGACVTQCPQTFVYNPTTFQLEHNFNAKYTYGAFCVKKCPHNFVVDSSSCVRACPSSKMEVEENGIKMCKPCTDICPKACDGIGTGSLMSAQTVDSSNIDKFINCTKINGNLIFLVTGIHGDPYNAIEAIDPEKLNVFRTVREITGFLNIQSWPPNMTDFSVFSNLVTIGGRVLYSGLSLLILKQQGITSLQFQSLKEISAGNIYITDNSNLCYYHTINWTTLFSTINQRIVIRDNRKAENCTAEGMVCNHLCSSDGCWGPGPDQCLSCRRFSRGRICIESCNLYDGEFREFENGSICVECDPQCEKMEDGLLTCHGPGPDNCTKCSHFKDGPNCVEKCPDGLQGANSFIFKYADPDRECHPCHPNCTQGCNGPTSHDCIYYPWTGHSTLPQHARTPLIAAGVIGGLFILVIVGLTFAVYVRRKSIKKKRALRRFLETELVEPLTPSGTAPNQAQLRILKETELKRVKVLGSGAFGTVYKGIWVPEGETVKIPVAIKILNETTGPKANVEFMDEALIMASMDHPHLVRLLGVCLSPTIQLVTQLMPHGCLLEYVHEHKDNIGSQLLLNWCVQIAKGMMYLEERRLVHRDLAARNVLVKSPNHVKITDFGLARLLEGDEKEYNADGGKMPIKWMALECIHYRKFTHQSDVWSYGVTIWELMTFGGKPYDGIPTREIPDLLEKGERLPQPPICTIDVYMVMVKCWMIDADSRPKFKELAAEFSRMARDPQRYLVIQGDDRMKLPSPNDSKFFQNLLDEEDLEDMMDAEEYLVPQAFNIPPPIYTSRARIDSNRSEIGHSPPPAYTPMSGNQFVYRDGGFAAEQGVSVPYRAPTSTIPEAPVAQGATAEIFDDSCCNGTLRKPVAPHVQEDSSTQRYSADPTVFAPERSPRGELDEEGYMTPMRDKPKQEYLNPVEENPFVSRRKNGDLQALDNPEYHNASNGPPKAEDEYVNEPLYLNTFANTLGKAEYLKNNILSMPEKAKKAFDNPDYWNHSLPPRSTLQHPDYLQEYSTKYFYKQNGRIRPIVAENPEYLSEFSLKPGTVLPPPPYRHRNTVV

C=CC(=O)N1CC=C(c2c[nH]c3ncnc(-c4ccc(CNC(=O)c5ccccc5)c(F)c4)c23)CC1
clearance [1]: 2.87 L/h/kg | IC50 (Raji): > 10 µM | IC50 [2]: 0.00149 µM | Cmax [3]: 2.25 µg/mL | Activity [4]: Non-Toxic | AUC(0-inf) [5]: 1.47 µg·h/mL | IC50 (OCI-Ly3): > 10 µM | Activity [6]: Toxic | Activity (TMD8 [7]): 63% | Activity [8]: Non-Toxic | Activity [9]: Non-Toxic | Vd [10]: 2.79 L/kg | Activity [11]: Non-Toxic | Activity (TMD8 [12]): Active | Activity [13]: Non-Toxic | IC50 (SUD4): > 10 µM | Activity [14]: Non-Toxic | IC50 (TMD8 [15]): 0.0026 µM | IC50 [16]: 0.0007 µM | half-life [17]: 40.2 min | Activity (TMD8 [18]): Active | Activity (TMD8 [19]): 59.2% | Activity (TMD8 [20]): 31.4% | half-life [21]: 35.4 min | IC50 (SU-DHL-6): > 10 µM | Activity [22]: Toxic | Activity (TMD8 [23]): 6.4% | inhibition in vivo at 50 mg/kg (TMD8 [24]): 104% | AUC(0-inf) [25]: 0.718 µg·h/mL | Activity [26]: 0.55% | Activity (TMD8 [27]): 49.3% | Cmax [28]: 1.44 µg/mL | IC50 (DOHH-2): 5.26 µM | Activity [29]: Non-Toxic | Activity [30]: Non-Toxic | IC50 (Pfeiffer): > 10 µM | Activity [31]: 0.05% | Activity (TMD8 [32]): 33% | Activity [33]: Non-Toxic | Activity (TMD8 [34]): 26.4% | IC50 [35]: 4.38 µM
